# Measurements reported in US20100248229A1, “INVITRO HUMAN EMBRYONIC MODEL AND A METHOD THEREOF” (Stempeutics Research Private Limited, priority 2007, published 2010).
# “Also recorded” adds a separate entry of the source.
# Columns and labels:
# Type in all cases: cell-based, human
# EBs = test: Differentiation of EBs into tissues of mesoderm origin / osteoblast differentiation (von Kossa, Alizarin Red); details: for osteoblast differentiation (mineralization by Alizarin Red and von Kossa staining): 15 days of differentiation
# From the text: The EBs were used to direct their differentiation into tissues of the ectoderm (nerve, skin), endoderm (pancreas, lungs), mesoderm (bone, blood, cardiomyocytes) and trophectoderm lineages (placenta) using known and published methods (Bader et al., 2000; Buttery et al., 2001; Lumelsky et al., 2001; Lee et al; 2000; Schuliner et al., 2001). A description of the methods used for differentiation of hESC to various tissues of the ectoderm, endoderm, mesoderm and trophectoderm lineages can be found in Hyslop et al. (2005). The ability of the compound/drug to inhibit the differentiation of EBs into these tissues of any particular type will indicate the possibility of developmental defect induced by the drug.
# Endotoxins/LPS silenced the expression of mesoderm specific genes in the EBs. […] To confirm this effect the LPS exposed EBs were directed towards tissues of mesoderm origin like cardiomyocytes, blood or bone. […] This indicates the possibility of defects in the blood, bone or heart formation as a result of endotoxin exposure during fetal development.
# (§1) EBs derived from the human embryonic stem cell (hESC) line HUES9 were exposed to 12.5 pg/ml of LPS for 48 hrs. The expression profile of the ectoderm, endoderm, mesoderm and trophectoderm lineage markers like βIII-tubulin, GATA4, BMP2, Brachury and β-hCG were studied, by RT-PCR and Immunofluorescence. Inhibition of mesoderm induction was confirmed by RT-PCR analysis for hANP, cTnT, ABCG2, GATA2, BMP4 and HAND1. Osteoblast differentiation was induced in the EBs, and confirmed by von Kosa and Alizarin red staining. A comet assay was also done to assess the degree of apoptosis in these EBs.
# Osteoblast differentiation: To assess the differentiating potential of EBs towards tissues of mesoderm origin, embryoid bodies were produced and exposed to LPS as described above. The normal and LPS treated EBs, 30 each, were subjected to osteoblast differentiation from day 5.5 onwards. To stimulate differentiation into osteogenic cells, ES medium containing 10^−8 M Dexamethasone, 50 μg/ml L-ascorbic acid and 5 mM Sodium-beta-glycophosphate was used. The medium was changed every 2-3 days and the differentiation was continued upto 15 days. The osteoblast differentiation was characterized by identifying mineralized areas using von Kossa and Alizarin Red staining. These were visualized and acquired using a Nikon Eclipse 90i microscope (Nikon Corporation, Japan).
# [1] = test system: EBs derived from hESC line HUES9; test: Immunofluorescence localization of HMGB1 and Brachury in EBs; details: for Brachury protein expression (immunofluorescence): day 4.5, normal EBs positive
# From the text: Exposure of EBs to LPS: EBs at day-2.5 were exposed to 12.5 pg/ml of Endotoxin/lipopolysaccharide (LPS) (Sigma) for 48 hrs supplemented in culture medium. […] Post exposure, the control and endotoxin treated EBs were divided in two groups. One group was lysed in TRIZOL for RNA isolation and the other group was fixed in 4% paraformaldehyde for immunofluorescence. The expression profile of the ectoderm, endoderm, mesoderm and trophectoderm lineage markers like PHI-tubulin, GATA4, BMP2, Brachury and β-hCG etc. were studied by RT-PCR and Immunofluorescence. The expression of the LPS-inducible and pluripotency related DNA binding protein HMGB1 was also studied in both the control and treated EBs.
# (§2) Immunofluorescence and Cell counting: HESCs were grown on coverslips coated with MEFs and then fixed with 4% paraformaldehyde and 5% sucrose (Sigma) followed by permeabilization in 0.2% Triton X100 (Sigma). The slides were then incubated with primary antibodies 1:500 dilution of SSEA4 (Chemicon, Calif., USA), 5 ug/ml Nanog (Santa Cruz Biotechnology, CA, USA), 10 μg/ml Brachury (R&D Systems Inc. Minneapolis, USA), and 1.5 μg/ml HMGB1 (Sigma) overnight at 4° C. After washing thrice with PBS, fluorescein isothiocyanate/Texas red-labeled Secondary antibodies against the primary goat/rabbit/mouse were added as 1:500 dilutions and incubated for 2 hours. DAPI (Sigma) was used for nuclear staining and then washed with PBS. The negative controls were done without primary antibodies. Slides were mounted with DABCC (Sigma) and images were acquired using Nikon Eclipse 90i microscope (Nikon Corporation, Japan) and Image-Pro Express software (Media Cybernetics, Inc, Silver Spring, Md.). The results were then compared with the control cells (non-LPS treated EBs). To count the number of cells per EB, the number of DAPI stained nuclei were counted in 10 each of the control and LPS treated EBs.
# [2] = test system: EBs derived from hESC line HUES9; test: Cell counting: DAPI stained nuclei per EB; details: 12.5 pg/ml for 48 hrs
# Experimental: as §2
# Cell numbers and DNA fragmentation: For a count of the average number of cells per EB, the DAPI stained nuclei were counted in individual control and LPS treated EBs under epifluorescence. […]
# [3] = test system: EBs derived from hESC line HUES9; test: RT-PCR of germ lineage markers and HMGB1 in LPS-exposed HUES9 EBs
# From the text: as §1
# Exposure of EBs to LPS: EBs at day-2.5 were exposed to 12.5 pg/ml of Endotoxin/lipopolysaccharide (LPS) (Sigma) for 48 hrs supplemented in culture medium. The normal and the endotoxin treated EBs were harvested on day 4.5. Post exposure, the control and endotoxin treated EBs were divided in two groups. One group was lysed in TRIZOL for RNA isolation and the other group was fixed in 4% paraformaldehyde for immunofluorescence. The expression profile of the ectoderm, endoderm, mesoderm and trophectoderm lineage markers like PHI-tubulin, GATA4, BMP2, Brachury and β-hCG etc. were studied by RT-PCR and Immunofluorescence. The expression of the LPS-inducible and pluripotency related DNA binding protein HMGB1 was also studied in both the control and treated EBs.
# RT-PCR: Total RNA from cells was isolated using TRIZOL-LS Reagent (Invitrogen) as per the manufacturer's protocol. Complementary DNA was synthesized using the SuperScript III First-Strand Synthesis System (Invitrogen) as per the manufacturer's instructions. Polymerase Chain Reaction (PCR) was carried out using 1U Tag DNA Polymerase (Sigma) and MgCl2 to a final concentration of 1.5 mM in a total volume of 25 μl/reaction. β-actin and GAPDH were used as the housekeeping controls. PCR cycles consisted of an initial denaturation at 95° C. for 5 minutes followed by 35 amplification cycles of denaturation at 94° C. for 45 seconds, annealing for 45 seconds, and extension at 72° C. for 45 seconds and final extension at 72° C. for 10 minutes.
# [4] = EBs pre-exposed to 12.5 pg/ml for 48 hrs
# [5] = 12.5 pg/ml for 48 hrs, EBs harvested day 4.5
substance,measurement,setting,value
lipopolysaccharide [LPS],"efficiency for attachment and proliferation during induction of osteogenic differentiation, treated vs control EBs",EBs; [4],no differences were found
same,osteoblast differentiation (mineralization by Alizarin Red and von Kossa staining),EBs; [4],failed to differentiate into functional osteoblasts; also recorded: failed to undergo osteoblast differentiation
same,osteoblast differentiation (mineralization by Alizarin Red and von Kossa staining),"EBs; EBs pre-exposed to 12.5 pg/ml for 48 hrs, listed as lipopolysaccharides",absence of mineralization
same,"differentiation of exposed EBs into tissues of mesoderm origin (cardiomyocytes, blood or bone)",EBs; LPS exposed EBs,failure to differentiate
same,Brachury protein expression (immunofluorescence),[1]; 12.5 pg/ml for 48 hrs,no signals
same,Brachury protein expression (immunofluorescence),"[1]; 12.5 pg/ml for 48 hrs, listed as lipopolysaccharides",loss of expression
same,localization of HMGB1 (immunofluorescence),"[1]; 12.5 pg/ml for 48 hrs, normal EBs lacked signals",cytoplasmic localization; also recorded: localized in the cytoplasm
same,Brachury expression on day 9.5,"[1]; EBs exposed to 12.5 pg/ml for 48 hrs, tested on day 9.5",did not show a positive signal
same,"average number of cells per EB, treated vs control",[2],not significantly different
same,average number of cells/EB (mean±SD),[2]; control 142.33±48.41,175±75.47 cells/EB
same,"expression of mesoderm markers (Brachury, BMP2, hANP, cTnT, ABCG2, GATA2, BMP4, HAND1)",[3]; 12.5 pg/ml for 48 hrs,no expression; also recorded: selectively silenced; also recorded: specific silencing
same,"mRNA expression of HMGB1, βIII-tubulin, GATA4 and β-hCG",[3]; [5],positive mRNA expression
same,"mRNA expression of mesoderm markers BMP4, GATA2, ABCG2, cTnT, hANP and HAND1",[3]; [5],absence of mRNA expressions
same,mRNA expression of mesoderm markers Brachury and BMP2,[3]; [5],no mRNA expressions
same,HMGB1 expression in EBs,"[3]; 12.5 pg/ml for 48 hrs, not expressed in normal EBs",positive or induced expression; also recorded: induced
same,functional mesoderm formation in EBs,[3]; exposure for 48 hrs,inhibited
